In ChEMBL document CHEMBL6103654, “Design, Biological Characterization, and Discovery of Capromorelin Derivatives as Oral Growth Hormone Secretagogue Receptor Type 1a Agonist for the Treatment of Growth Hormone Deficiency” (J Med Chem, 2025):
Active and inactive are the calls of the source. No cut-off for these calls is given here.

What was measured:
[1] = Clearance in male Sprague-Dawley rat plasma at 1 mg/kg, iv administered as single dose measured after 4 hrs; format: ADME, organism-based
[2] = Elimination half life in male Sprague-Dawley rat at 2 mg/kg, po administered as single dose measured after 4 hrs; format: ADME, organism-based; conditions: in vivo, read-out: beta t1/2 (converted)
[3] = Cmax in male Sprague-Dawley rat at 2 mg/kg, po administered as single dose measured after 4 hrs; format: ADME, organism-based; conditions: in vivo
[4] = AUC in male Sprague-Dawley rat at 2 mg/kg, po administered as single dose measured after 4 hrs; format: ADME, organism-based; conditions: in vivo
Rattus norvegicus [5] = assay: Induction of growth hormone level in Juvenile Sprague-Dawley rat blood at 0.1 mg/kg, po administered as single dose measured after 20 mins by ELISA method (reference value: 29.1+/-8.6 ng/mL); format: functional
Rattus norvegicus [6] = assay: Induction of growth hormone level in Juvenile Sprague-Dawley rat blood at 0.2 mg/kg, po administered as single dose measured after 2 hrs by ELISA method (reference value: 26.5+/-7.3 ng/mL); format: functional
Rattus norvegicus [7] = assay: Induction of growth hormone level in Juvenile Sprague-Dawley rat blood at 0.2 mg/kg, po administered as single dose measured after 4 hrs by ELISA method (reference value: 32.5+/-4.5 ng/mL); format: functional
Rattus norvegicus [8] = assay: Induction of growth hormone level in Juvenile Sprague-Dawley rat blood at 0.5 mg/kg, po administered as single dose measured after 20 mins by ELISA method (reference value: 29.1+/-8.6 ng/mL); format: functional
Rattus norvegicus [9] = assay: Induction of growth hormone level in Juvenile Sprague-Dawley rat blood at 0.5 mg/kg, po administered as single dose measured after 40 mins by ELISA method (reference value: 40.1+/-11.0 ng/mL); format: functional
Rattus norvegicus [10] = assay: Induction of growth hormone level in adult Sprague-Dawley rat blood at 0.1 mg/kg, po administered as single dose measured after 40 mins by ELISA method (reference value: 14.4+/-6.9 ng/mL); format: functional
Rattus norvegicus [11] = assay: Induction of growth hormone level in adult Sprague-Dawley rat blood by measuring AUC(0 to 40 mins) at 0.1 mg/kg, po administered as single dose by ELISA method (reference value: 7.0+/-1.7 ng/mL); format: functional, organism-based
Rattus norvegicus [12] = assay: Induction of growth hormone level in adult Sprague-Dawley rat blood at 0.5 mg/kg, po administered as single dose measured after 20 mins by ELISA method (reference value: 4.9+/-1.1 ng/mL); format: functional
Rattus norvegicus [13] = assay: Induction of growth hormone level in 4 week-old male Sprague-Dawley rat assessed as increase in body length at 2.5 mg/kg, po measured after 10 days; format: functional, organism-based; conditions: time 10.0 day
Rattus norvegicus [14] = assay: Induction of growth hormone level in 6 week-old male Sprague-Dawley rat assessed as increase in body weight at 2.5 mg/kg, po measured after 10 days; format: functional, organism-based; conditions: time 10.0 day
[15] = Half life in male monkey at 2 mg/kg, po administered as single dose measured after 4 hrs; format: ADME, organism-based, Macaca mulatta; conditions: rhesus monkey, in vivo
[16] = AUC in male monkey at 2 mg/kg, po administered as single dose measured after 4 hrs; format: ADME, organism-based, Macaca mulatta; conditions: rhesus monkey, in vivo
[17] = Volume of distribution in male dog at 0.5 mg/kg, iv administered as single dose measured after 4 hrs; format: ADME, organism-based, Canis lupus familiaris; conditions: in vivo
[18] = Clearance in male mouse plasma at 1 mg/kg, iv administered as single dose measured after 4 hrs; format: ADME, organism-based
[19] = Volume of distribution in male mouse at 1 mg/kg, iv administered as single dose measured after 4 hrs; format: ADME, organism-based; conditions: in vivo
[20] = Half life in male mouse at 2 mg/kg, po administered as single dose measured after 4 hrs; format: ADME, organism-based; conditions: in vivo
[21] = Metabolic stability in human liver microsome assessed as intrinsic clearance at 1 uM measured upto 60 mins in presence of NADPH by LC-MS/MS analysis; format: ADME; conditions: liver microsomes, read-out: CLH
[22] = Metabolic stability in monkey liver microsome assessed as intrinsic clearance at 1 uM measured upto 60 mins in presence of NADPH by LC-MS/MS analysis; format: ADME, Macaca mulatta; conditions: rhesus monkey, liver microsomes, read-out: CLH
[23] = Metabolic stability in rat liver microsome assessed as half life at 1 uM measured upto 60 mins in presence of NADPH by LC-MS/MS analysis; format: ADME; conditions: liver microsomes
[24] = Metabolic stability in rat liver microsome assessed as hepatic clearance at 1 uM measured upto 60 mins in presence of NADPH by LC-MS/MS analysis; format: ADME; conditions: liver microsomes, read-out: CLH
Cytochrome P450 2D6 = Cytochrome P450 2D6 (Homo sapiens, UniProt P10635); assay: Inhibition of CYP2D6 in human liver microsome incubated for 5 min in presence of NADPH by UPLC-MS/MS analysis; format: ADME, microsomes
Sequence of Cytochrome P450 2D6 (P10635 whole entry): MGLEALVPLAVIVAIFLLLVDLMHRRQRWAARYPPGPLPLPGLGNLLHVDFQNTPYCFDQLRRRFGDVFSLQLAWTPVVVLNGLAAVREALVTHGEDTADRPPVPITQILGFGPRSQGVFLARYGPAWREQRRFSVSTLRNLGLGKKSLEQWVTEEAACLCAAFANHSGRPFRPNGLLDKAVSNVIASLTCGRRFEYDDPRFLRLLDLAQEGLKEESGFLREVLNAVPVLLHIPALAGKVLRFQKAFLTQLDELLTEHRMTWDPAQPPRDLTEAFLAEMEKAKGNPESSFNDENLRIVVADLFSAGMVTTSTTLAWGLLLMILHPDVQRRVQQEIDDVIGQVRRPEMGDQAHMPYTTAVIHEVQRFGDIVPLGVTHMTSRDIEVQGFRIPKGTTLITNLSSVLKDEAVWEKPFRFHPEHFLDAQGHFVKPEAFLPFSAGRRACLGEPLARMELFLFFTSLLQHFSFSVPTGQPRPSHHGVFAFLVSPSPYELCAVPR

Cytochrome P450 1A2 = target: T1, Cytochrome P450 1A2 (Homo sapiens, UniProt P05177); assay: Inhibition of CYP1A2 in human liver microsome incubated for 5 min in presence of NADPH by UPLC-MS/MS analysis; format: ADME, microsomes
T1 sequence (P05177 whole entry): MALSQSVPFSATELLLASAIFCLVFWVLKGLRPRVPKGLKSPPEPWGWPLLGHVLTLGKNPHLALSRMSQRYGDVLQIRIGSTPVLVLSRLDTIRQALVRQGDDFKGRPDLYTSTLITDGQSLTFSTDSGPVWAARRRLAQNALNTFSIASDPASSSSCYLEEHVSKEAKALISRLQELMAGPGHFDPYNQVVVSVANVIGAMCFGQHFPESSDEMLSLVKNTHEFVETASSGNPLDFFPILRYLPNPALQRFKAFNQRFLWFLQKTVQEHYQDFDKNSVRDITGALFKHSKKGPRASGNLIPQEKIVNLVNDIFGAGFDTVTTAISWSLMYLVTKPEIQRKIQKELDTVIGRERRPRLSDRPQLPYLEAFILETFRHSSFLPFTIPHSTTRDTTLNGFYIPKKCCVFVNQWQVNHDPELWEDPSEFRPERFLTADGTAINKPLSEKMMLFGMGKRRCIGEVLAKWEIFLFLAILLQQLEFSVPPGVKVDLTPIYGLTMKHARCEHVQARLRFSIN

[25] = target: T2, 5-hydroxytryptamine receptor 3A (Homo sapiens, UniProt P46098); assay: Inhibition of human HTR3A by fluorimetry analysis
T2 sequence (P46098 whole entry): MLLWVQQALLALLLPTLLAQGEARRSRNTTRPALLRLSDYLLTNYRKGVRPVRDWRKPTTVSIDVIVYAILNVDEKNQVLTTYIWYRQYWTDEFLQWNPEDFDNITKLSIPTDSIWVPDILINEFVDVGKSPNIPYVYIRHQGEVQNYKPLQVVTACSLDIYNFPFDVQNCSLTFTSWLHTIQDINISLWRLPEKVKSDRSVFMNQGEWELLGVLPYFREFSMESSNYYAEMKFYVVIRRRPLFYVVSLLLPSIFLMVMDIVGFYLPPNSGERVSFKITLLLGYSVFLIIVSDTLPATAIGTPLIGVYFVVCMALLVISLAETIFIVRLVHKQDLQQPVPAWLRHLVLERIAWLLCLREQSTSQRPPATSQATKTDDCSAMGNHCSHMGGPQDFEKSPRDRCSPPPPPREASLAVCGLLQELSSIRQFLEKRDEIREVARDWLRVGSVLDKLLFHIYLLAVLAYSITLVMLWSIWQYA

For `CC(C)(N)C(=O)N[C@H](COCc1ccccc1)C(=O)N1CCC2=NN(C3CC3)C(=O)[C@]2(Cc2ccccc2)C1`, the clearance [1] was 28.9 mL/min/kg, the half-life [2] was 2.76 h and the Cmax [3] was 156 ng/mL. The AUC at 4 h [4] was 188 ng·h/mL, the Activity (Rattus norvegicus [5]) was 263.6 ng/mL and the Activity (Rattus norvegicus [6]) was 32.3 ng/mL. It also gave an Activity (Rattus norvegicus [7]) of 43.5 ng/mL, an Activity (Rattus norvegicus [8]) of 223.2 ng/mL and an Activity (Rattus norvegicus [9]) of 74.6 ng/mL. For the same compound, the Activity (Rattus norvegicus [10]) was 27.6 ng/mL, the AUC (Rattus norvegicus [11]) was 61 ng·h/mL and the Activity (Rattus norvegicus [12]) was 68.8 ng/mL. For the same compound, the Activity (Rattus norvegicus [13]) was “Active”, the Activity (Rattus norvegicus [14]) was “Active” and the half-life [15] was 1.02 h. For the same compound, the AUC [16] was 75.13 ng·h/mL, the Vd [17] was 2.88 L/kg and the clearance [18] was 124 mL/min/kg. The Vd [19] was 2.94 L/kg, the half-life [20] was 1.52 h and the microsomal CLint at 1 µM [21] was 123 µL/min/mg. The microsomal CLint at 1 µM [22] was 451 µL/min/mg, the half-life at 1 µM [23] was 9.9 min and the CLint scaled at 1 µM [24] was 342 mL/min/kg. It also gave an IC50 (Cytochrome P450 2D6) greater than 30 µM, an IC50 (Cytochrome P450 1A2) greater than 30 µM and an IC50 [25] of 3.06 µM.
